# Where a name gives a salt, the structure may show the parent alone.
# Target: T1, MDR (Rattus norvegicus, UniProt P16257)
# T1 construct: Crude mitochondria fractions prepared from rat cerebral cortex were used as a receptor sample; from tissue; host or cells: rat cerebral cortex, crude mitochondria fraction
# Experiment: MDR receptor binding assay ([3H]PK11195 displacement)
# Conditions: 50% inhibition of [3H]PK11195 (2 nM) binding; crude mitochondria fraction from rat cerebral cortex; 4° C., 90 minutes
# Experimental: Experiment [MDR Receptor Binding Assay]
# Crude mitochondria fractions prepared from rat cerebral cortex were used as a receptor sample, and [^3H]PK11195 was used as a [^3H]-labeled ligand.
# A binding assay using the [^3H]-labeled ligand was carried out according to the following method as described in Journal of Pharmacology and Experimental Therapeutics, 262, 971(1992).
# Preparation of Receptor Sample: Rat cerebral cortex was homogenized using a Teflon-coated homogenizer in a 10 mM HEPES buffer (pH 7.4) containing 0.32 M sucrose in ten volumes of the wet weight. The homogenate was centrifuged at 900×g for 10 minutes, and the resulting supernatant was centrifuged at 9,000×g for 10 minutes. The precipitate was suspended in a HEPES buffer to give a protein concentration of 1 mg/ml, and centrifuged at 12,000×g for 10 minutes. The resulting precipitate was suspended in a 50 mM HEPES buffer (pH 7.4) to give a crude mitochondria fraction.
# MDR Binding Assay: Mitochondria sample (1.0 mg protein/ml), [^3H]PK11195 (2 nM) and the test drug were reacted at 4° C. for 90 minutes. After completion of the reaction, the reaction mixture was filtered with suction through a glass filter (GF/B) treated with 0.3% polyethyleneimine, and the radioactivity on the filter was measured by a liquid scintillation spectrometer.
# The binding at the reaction in the presence of 10 μM PK11195 was defined as non-specific binding of [3H]PK11195, and the difference between total binding and non-specific binding was defined as specific binding.
row,IC50 [nM],SMILES
1,1.38,COc1cccc(CN(C(C)=O)c2ccccc2Oc2ccccc2)c1 [Compound 001]
2,0.658,COc1ccc(CN(C(C)=O)c2ccccc2Oc2ccccc2)cc1 [Compound 002]
3,0.123,CCOc1ccccc1CN(C(C)=O)c1ccccc1Oc1ccccc1 [Compound 003]
4,0.791,CCOc1ccccc1CN(C(C)=O)c1ccc(Cl)cc1Oc1ccccc1 [Compound 004]
5,0.118,CCCOc1ccccc1CN(C(C)=O)c1ccccc1Oc1ccccc1 [Compound 005]
6,0.677,CCCOc1ccccc1CN(C(C)=O)c1ccc(Cl)cc1Oc1ccccc1 [Compound 006]
7,0.0977,"CC(=O)N(Cc1ccccc1OC(C)C)c1ccccc1Oc1ccccc1 [Compound 007, N-Acetyl-N-(2-isopropoxybenzyl)-2-phenoxyaniline]"
8,0.87,CC(=O)N(Cc1ccccc1OC(C)C)c1ccc(Cl)cc1Oc1ccccc1 [Compound 008]
9,0.112,CC(=O)N(Cc1ccccc1OCC(C)C)c1ccccc1Oc1ccccc1 [Compound 009]
10,0.149,CCCCCOc1ccccc1CN(C(C)=O)c1ccccc1Oc1ccccc1 [Compound 010]
11,0.163,CC(=O)N(Cc1ccccc1OCCC(C)C)c1ccccc1Oc1ccccc1 [Compound 011]
12,0.453,"COc1ccccc1CCN(C(C)=O)c1ccccc1Oc1ccccc1 [Compound 012, N-Acetyl-N-[2-(2-methoxyphenyl)ethyl]-2-phenoxyaniline]"
13,9.77,"COc1ccccc1N(C(C)=O)c1ccccc1Oc1ccccc1 [Compound 013, N-Acetyl-N-(2-methoxyphenyl)-2-phenoxyaniline]"
14,2.21,COc1ccccc1C(C)N(C(C)=O)c1ccccc1Oc1ccccc1 (stereo not shown) [Compound 014]
15,0.285,COc1cccc(CN(C(C)=O)c2ccccc2Oc2ccccc2)c1OC [Compound 015]
16,0.722,"COc1ccc(CN(C(C)=O)c2ccccc2Oc2ccccc2)c(OC)c1 [Compound 016, N-Acetyl-N-(2,4-dimethoxybenzyl)-2-phenoxyaniline]"
17,0.085,COc1ccc(OC)c(CN(C(C)=O)c2ccccc2Oc2ccccc2)c1 [Compound 017]
18,0.196,COc1ccc(OC)c(CN(C(C)=O)c2cc(C)ccc2Oc2ccccc2)c1 [Compound 019]
19,0.31,COc1ccc(OC)c(CN(C(C)=O)c2cc(F)ccc2Oc2ccccc2)c1 [Compound 021]
20,0.179,COc1ccc(OC)c(CN(C(C)=O)c2ccc(Cl)cc2Oc2ccccc2)c1 [Compound 022]
21,0.424,COc1ccc(OC)c(CN(C(C)=O)c2cc(Cl)ccc2Oc2ccccc2)c1 [Compound 023]
22,0.26,COc1cc(CN(C(C)=O)c2ccccc2Oc2ccccc2)cc(OC)c1 [Compound 025]
23,3.2,"CC(=O)N(Cc1ccccc1O)c1ccccc1Oc1ccccc1 [Compound 027, N-acetyl-N-(2-hydroxybenzyl)-2-phenoxyaniline]"

row,IC50 [nM],SMILES
1,3.2,"CC(=O)Oc1ccccc1CN(C(C)=O)c1ccccc1Oc1ccccc1 [Compound 028, N-acetyl-N-(2-acetyloxybenzyl)-2-phenoxyaniline]"
2,0.486,"CC(=O)N(Cc1ccccc1Cl)c1ccccc1Oc1ccccc1 [Compound 029, N-Acetyl-N-(2-chlorobenzyl)-2-phenoxyaniline]"
3,1.96,CC(=O)N(Cc1cccc(Cl)c1)c1ccccc1Oc1ccccc1 [Compound 030]
4,1.23,CC(=O)N(Cc1ccc(Cl)cc1)c1ccccc1Oc1ccccc1 [Compound 031]
5,6.73,CC(=O)N(Cc1ccccc1F)c1ccccc1Oc1ccccc1 [Compound 032]
6,3.51,CC(=O)N(Cc1ccccc1Br)c1ccccc1Oc1ccccc1 [Compound 033]
7,0.179,CSc1ccccc1CN(C(C)=O)c1ccccc1Oc1ccccc1 [Compound 034]
8,0.0643,"COC(=O)c1ccccc1CN(C(C)=O)c1ccccc1Oc1ccccc1 [Compound 040, N-acetyl-N-(2-methoxycarbonylbenzyl)-2-phenoxyaniline]"
9,0.376,"CC(=O)N(Cc1ccccc1C=O)c1ccccc1Oc1ccccc1 [Compound 046, N-acetyl-N-(2-formylbenzyl)-2-phenoxyaniline]"
10,0.265,"CC(=O)c1ccccc1CN(C(C)=O)c1ccccc1Oc1ccccc1 [Compound 047, N-Acetyl-N-(2-acetylbenzyl)-2-phenoxyaniline]"
11,4.23,CC(=O)N(Cc1ccccc1C)c1ccccc1Oc1ccccc1 [Compound 049]
12,0.215,"CCCc1ccccc1CN(C(C)=O)c1ccccc1Oc1ccccc1 [Compound 050, N-Acetyl-N-(2-propylbenzyl)-2-phenoxyaniline]"
13,0.196,C=Cc1ccccc1CN(C(C)=O)c1ccccc1Oc1ccccc1 [Compound 051]
14,4.64,"CC(=O)N(Cc1ccccc1[N+](=O)[O-])c1ccccc1Oc1ccccc1 [Compound 052, N-acetyl-N-(2-nitrobenzyl)-2-phenoxyaniline]"
15,1.26,"CC(=O)N(Cc1ccccc1N1CCCC1)c1ccccc1Oc1ccccc1 [Compound 054, N-Acetyl-N-(2-pyrrolidinobenzyl)-2-phenoxyaniline monohydrochloride]"
16,1.83,CC(=O)N(Cc1ccc(N(C)C)cc1)c1ccccc1Oc1ccccc1 [Compound 055]
17,2.92,CC(=O)N(Cc1ccccc1)c1ccccc1Oc1ccccc1 [Compound 056]
18,0.955,COc1cccnc1CN(C(C)=O)c1ccccc1Oc1ccccc1 [Compound 060]
19,0.498,COc1ncccc1CN(C(C)=O)c1ccccc1Oc1ccccc1 [Compound 061]
20,1.05,COc1ccncc1CN(C(C)=O)c1ccccc1Oc1ccccc1 [Compound 062]
21,0.0933,CCC(=O)N(Cc1ccccc1OC)c1ccccc1Oc1ccccc1 [Compound 064]
22,0.925,CCOc1ccccc1CN(C(=O)CC)c1ccc(Cl)cc1Oc1ccccc1 [Compound 066]
23,1.08,CCCOc1ccccc1CN(C(=O)CC)c1ccc(Cl)cc1Oc1ccccc1 [Compound 067]

row,IC50 [nM],SMILES
1,1.26,CCCC(=O)N(Cc1ccccc1OC)c1ccccc1Oc1ccccc1 [Compound 071]
2,3.51,COc1ccccc1CN(C(=O)C(C)C)c1ccccc1Oc1ccccc1 [Compound 072]
3,1.52,CCCCC(=O)N(Cc1ccccc1OC)c1ccccc1Oc1ccccc1 [Compound 073]
4,1.83,CCCCCC(=O)N(Cc1ccccc1OC)c1ccccc1Oc1ccccc1 [Compound 075]
5,0.955,COc1ccccc1CN(C(=O)C1CC1)c1ccccc1Oc1ccccc1 [Compound 076]
6,5.59,COc1ccccc1CN(C(=O)C1CCC1)c1ccccc1Oc1ccccc1 [Compound 077]
7,4.64,COc1ccccc1CN(C(=O)c1ccccc1)c1ccccc1Oc1ccccc1 [Compound 079]
8,4.64,COc1ccccc1CN(C(=O)C(F)(F)F)c1ccccc1Oc1ccccc1 [Compound 080]
9,0.343,"COc1ccccc1CN(C(=O)CCl)c1ccccc1Oc1ccccc1 [Compound 081, N-chloroacetyl-N-(2-methoxybenzyl)-2-phenoxyaniline]"
10,3.85,"COc1ccccc1CN(C(=O)CO)c1ccccc1Oc1ccccc1 [Compound 085, N-Hydroxyacetyl-N-(2-methoxybenzyl)-2-phenoxyaniline]"
11,0.572,COc1ccccc1CN(C=O)c1ccccc1Oc1ccccc1 [Compound 087]
12,0.163,CCOc1ccccc1CN(C=O)c1ccccc1Oc1ccccc1 [Compound 088]
13,3.51,"COc1ccccc1CN(C(N)=O)c1ccccc1Oc1ccccc1 [Compound 089, N-Aminocarbonyl-N-(2-methoxybenzyl)-2-phenoxyaniline]"
14,4.64,"CNC(=O)N(Cc1ccccc1OC)c1ccccc1Oc1ccccc1 [Compound 090, N-(2-Methoxybenzyl)-N-(N-methylaminocarbonyl)-2-phenoxyaniline]"
15,1.83,CCOc1ccccc1CN(C(=O)NC)c1ccccc1Oc1ccccc1 [Compound 091]
16,0.722,CCCOc1ccccc1CN(C(=O)NC)c1ccccc1Oc1ccccc1 [Compound 092]
17,0.87,CNC(=O)N(Cc1ccccc1OC(C)C)c1ccccc1Oc1ccccc1 [Compound 093]
18,0.925,CCCCCOc1ccccc1CN(C(=O)NC)c1ccccc1Oc1ccccc1 [Compound 094]
19,3.77,"CNC(=O)N(Cc1cc(OC)ccc1OC)c1ccccc1Oc1ccccc1 [Compound 095, N-(2,5-Dimethoxybenzyl)-N-(N-methylaminocarbonyl)-2-phenoxyaniline]"
20,0.498,"COC(=O)N(Cc1ccccc1OC)c1ccccc1Oc1ccccc1 [Compound 098, N-(2-Methoxybenzyl)-N-methoxycarbonyl-2-phenoxyaniline]"
21,0.87,CCOC(=O)N(Cc1ccccc1OC)c1ccccc1Oc1ccccc1 [Compound 099]
22,0.112,COc1ccccc1CN(C(C)=O)c1ccccc1Oc1ccccc1C [Compound 100]
23,0.285,COc1ccccc1CN(C(C)=O)c1ccccc1Oc1cccc(C)c1 [Compound 101]

row,SMILES,IC50 [nM]
1,"COc1ccccc1CN(C(=O)COC(C)=O)c1ccccc1Oc1ccccc1 [Compound 082, N-acetoxyacetyl-N-(2-methoxybenzyl)-2-phenoxyaniline]",8.9
